Experiment: xn = mol fraction of the nth substance listed

C=CC(=O)OC + CCCO
viscosity [mPa·s], 101.33 kPa
Conditions	308.15 K	318.15 K
x1 = 0.0501	1.354	1.107
x1 = 0.1464	1.081	0.916
x1 = 0.2331	0.9	0.782
x1 = 0.3469	0.727	0.648
x1 = 0.4436	0.622	0.561
x1 = 0.5011	0.572	0.519
x1 = 0.5436	0.541	0.492
x1 = 0.6429	0.483	0.439
x1 = 0.7442	0.441	0.397
x1 = 0.8449	0.413	0.365
x1 = 0.9424	0.396	0.343

CCCCCC + CCCO
viscosity [mPa·s]
Conditions	298.15 K	308.15 K
100 kPa, x1 = 0.0603	1.619	–
100 kPa, x1 = 0.0992	1.44	–
100 kPa, x1 = 0.2086	1.07	–
100 kPa, x1 = 0.4056	0.6737	–
100 kPa, x1 = 0.5016	0.5493	–
100 kPa, x1 = 0.5979	0.4564	–
100 kPa, x1 = 0.7014	0.3861	–
100 kPa, x1 = 0.8029	0.3467	–
100 kPa, x1 = 0.9039	0.3116	–
100 kPa, x1 = 0.9486	0.3029	–
100 kPa, x2 = 0.0679	0.3219	0.2901
100 kPa, x2 = 0.1319	0.3383	0.3038
100 kPa, x2 = 0.2357	0.3688	0.3515
100 kPa, x2 = 0.3681	0.4378	0.3916
100 kPa, x2 = 0.4848	0.5309	0.4635
100 kPa, x2 = 0.5884	0.6557	0.5724
100 kPa, x2 = 0.6811	0.8015	0.6603
100 kPa, x2 = 0.7644	0.998	0.8293
100 kPa, x2 = 0.8398	1.172	0.9551
100 kPa, x2 = 0.9083	1.427	1.177
100 kPa, x2 = 0.9708	1.762	1.427
101.33 kPa, x2 = 0.1148	0.34	–
101.33 kPa, x2 = 0.1407	0.345	–
101.33 kPa, x2 = 0.2154	0.369	–
101.33 kPa, x2 = 0.3704	0.451	–
101.33 kPa, x2 = 0.5278	0.603	–
101.33 kPa, x2 = 0.6309	0.75	–
101.33 kPa, x2 = 0.7618	1.038	–
101.33 kPa, x2 = 0.8626	1.349	–
101.33 kPa, x2 = 0.9594	1.756	–

C1CCC2=[NH+]CCCN2CC1.c1nc[n-]n1 + CCO
303.15 K, 100 kPa
Conditions	viscosity [mPa·s]
x1 = 0.1001	4.38
x1 = 0.2	9.22
x1 = 0.2999	22.01
x1 = 0.4003	47.32
x1 = 0.4989	90.79
x1 = 0.6002	174.5
x1 = 0.7008	325.1
x1 = 0.7993	472.2
x1 = 0.9002	830.6

CC(C)CO + CCO
101 kPa, x2 = 0.5
Conditions	viscosity [mPa·s]
308.15 K	1.598
313.15 K	1.479
318.15 K	1.308

CCCC=O + CCO
298.1 K, 101 kPa
Conditions	viscosity [mPa·s]
x1 = 0.1009	1.261
x1 = 0.1952	1.413
x1 = 0.3034	1.484
x1 = 0.3333	1.463
x1 = 0.3989	1.366
x1 = 0.5109	1.103
x1 = 0.5976	0.896
x1 = 0.7003	0.7
x1 = 0.7924	0.564
x1 = 0.8988	0.468

CCCCCC + CCO
298.15 K
Conditions	viscosity [mPa·s]
100 kPa, x1 = 0.0432	0.9721
100 kPa, x1 = 0.1024	0.848
100 kPa, x1 = 0.1981	0.702
100 kPa, x1 = 0.3027	0.5885
100 kPa, x1 = 0.4066	0.5026
100 kPa, x1 = 0.5031	0.439
100 kPa, x1 = 0.5999	0.3881
100 kPa, x1 = 0.7007	0.3479
100 kPa, x1 = 0.8026	0.3191
100 kPa, x1 = 0.8955	0.3025
100 kPa, x1 = 0.971	0.2965
101 kPa, x1 = 0.0149	1.046
101 kPa, x2 = 0.1035	0.3031
101 kPa, x2 = 0.1286	0.306
101 kPa, x2 = 0.2846	0.3322
101 kPa, x2 = 0.3428	0.3666
101 kPa, x2 = 0.4373	0.4133
101 kPa, x2 = 0.4727	0.4249
101 kPa, x2 = 0.533	0.4651
101 kPa, x2 = 0.5802	0.4994
101 kPa, x2 = 0.6757	0.5717
101 kPa, x2 = 0.7394	0.6511
101 kPa, x2 = 0.8689	0.8184
101 kPa, x2 = 0.8995	0.8715
101 kPa, x2 = 0.9793	1.033
101.33 kPa, x2 = 0.0569	0.315
101.33 kPa, x2 = 0.1499	0.325
101.33 kPa, x2 = 0.2731	0.363
101.33 kPa, x2 = 0.439	0.438
101.33 kPa, x2 = 0.5984	0.528
101.33 kPa, x2 = 0.7241	0.632
101.33 kPa, x2 = 0.8282	0.757
101.33 kPa, x2 = 0.9076	0.895
101.33 kPa, x2 = 0.9673	1.022

COC(N)=O + CCOC(N)=O
101.33 kPa, x2 = 0.5
Conditions	viscosity [mPa·s]
298.15 K	7.716
313.15 K	4.41

C=CC(=O)OC + CCOCCOCCO
viscosity [mPa·s], 101 kPa
Conditions	293.15 K	298.15 K	303.15 K	308.15 K	313.15 K	318.15 K
x2 = 0.0702	0.594	0.558	0.5	0.469	0.447	0.428
x2 = 0.1404	0.695	0.65	0.607	0.572	0.539	0.507
x2 = 0.2131	0.826	0.767	0.715	0.671	0.624	0.589
x2 = 0.2822	0.95	0.877	0.813	0.756	0.705	0.659
x2 = 0.3597	1.133	1.038	0.955	0.884	0.82	0.762
x2 = 0.4297	1.346	1.226	1.109	1.019	0.941	0.872
x2 = 0.5002	1.574	1.428	1.288	1.171	1.076	0.992
x2 = 0.5703	1.835	1.648	1.479	1.355	1.236	1.125
x2 = 0.6412	2.109	1.904	1.715	1.547	1.405	1.286
x2 = 0.7172	2.478	2.199	1.976	1.782	1.605	1.457
x2 = 0.7906	2.868	2.529	2.247	2.017	1.819	1.656
x2 = 0.8598	3.295	2.893	2.534	2.279	2.031	1.836
x2 = 0.9184	3.692	3.212	2.788	2.508	2.226	2.016

C=CC(=O)OCCCC + CCOCCOCCO
viscosity [mPa·s], 101 kPa
Conditions	293.15 K	298.15 K	303.15 K	308.15 K	313.15 K	318.15 K
x2 = 0.0702	0.966	0.899	0.837	0.782	0.733	0.687
x2 = 0.1444	1.059	0.977	0.904	0.839	0.783	0.733
x2 = 0.2183	1.167	1.07	0.986	0.913	0.849	0.791
x2 = 0.2855	1.287	1.175	1.078	0.994	0.92	0.854
x2 = 0.3658	1.453	1.332	1.207	1.108	1.022	0.947
x2 = 0.4403	1.637	1.499	1.346	1.233	1.127	1.039
x2 = 0.5027	1.819	1.649	1.477	1.343	1.227	1.126
x2 = 0.569	2.028	1.817	1.646	1.488	1.351	1.236
x2 = 0.6545	2.363	2.103	1.884	1.697	1.531	1.393
x2 = 0.7189	2.654	2.336	2.079	1.871	1.672	1.527
x2 = 0.787	2.982	2.609	2.295	2.069	1.842	1.681
x2 = 0.8385	3.27	2.85	2.481	2.243	1.992	1.816
x2 = 0.9319	3.843	3.312	2.873	2.586	2.28	2.07

CCCCCOC(C)=O + CCOc1ccccc1
Conditions	viscosity [mPa·s]
298.15 K, 101 kPa, x2 = 0.5	0.855

CCCCCOC(C)=O + CCc1ccccc1
Conditions	viscosity [mPa·s]
298.15 K, 101 kPa, x2 = 0.089	0.7697

CC(C)CO + CN1CCCC1=O
298.15 K, 101 kPa
Conditions	viscosity [mPa·s]
x2 = 0.0577	2.895
x2 = 0.1202	2.548
x2 = 0.1587	2.399
x2 = 0.2004	2.276
x2 = 0.2421	2.18
x2 = 0.3117	2.053
x2 = 0.368	1.982
x2 = 0.4264	1.931
x2 = 0.4568	1.896
x2 = 0.5217	1.854
x2 = 0.5616	1.83
x2 = 0.6113	1.82
x2 = 0.6662	1.796
x2 = 0.711	1.776
x2 = 0.7618	1.752
x2 = 0.8039	1.747
x2 = 0.8557	1.717
x2 = 0.8982	1.704
x2 = 0.9723	1.677

O=C1CCCN1C1CCCCC1 + CN1CCCC1=O
298.15 K, 100 kPa
Conditions	viscosity [mPa·s]
x2 = 0.0108	10.21
x2 = 0.0206	9.998
x2 = 0.026	9.92
x2 = 0.0415	9.645
x2 = 0.046	9.574
x2 = 0.06	9.318
x2 = 0.0748	9.054
x2 = 0.0872	8.858
x2 = 0.094	8.735
x2 = 0.2076	7.103
x2 = 0.302	5.992
x2 = 0.4096	4.942
x2 = 0.5043	4.171
x2 = 0.61	3.449
x2 = 0.7	2.937
x2 = 0.8042	2.436
x2 = 0.9004	2.038
x2 = 0.9083	2.005
x2 = 0.9175	1.967
x2 = 0.9328	1.93
x2 = 0.9426	1.884
x2 = 0.9516	1.854
x2 = 0.9616	1.837
x2 = 0.9708	1.795
x2 = 0.9798	1.775

C1CCC2=[NH+]CCCN2CC1.c1nc[n-]n1 + CN(C)C=O
303.15 K, 100 kPa
Conditions	viscosity [mPa·s]
x1 = 0.1001	1.42
x1 = 0.2	3.07
x1 = 0.2999	6.28
x1 = 0.4003	11.77
x1 = 0.4989	25.38
x1 = 0.6002	46.11
x1 = 0.7008	98.43
x1 = 0.7993	195
x1 = 0.9002	470.1

O=C1OCCO1 + CNC(C)=O
313.15 K, 101.33 kPa
Conditions	viscosity [mPa·s]
x1 = 0.0747	2.732
x1 = 0.1786	2.456
x1 = 0.2841	2.246
x1 = 0.3817	2.099
x1 = 0.4799	1.984
x1 = 0.5724	1.903
x1 = 0.6726	1.845
x1 = 0.7707	1.814
x1 = 0.869	1.824
x1 = 0.9684	1.893

— the CheMixHub viscosity set
